From the NIST ThermoML archive (doi:10.1021/je400473z)

Experiment: wn = mass fraction of the nth substance listed
Conditions: 101 kPa, Liquid, Vibrating tube method

CC#N [acetonitrile] + O
mass density [kg/m3]
Conditions | 293.15 K | 303.15 K | 313.15 K
w1 = 0.1 | 983.2 | 978.7 | 973.5
w1 = 0.2 | 964.2 | 958.2 | 951.6
w1 = 0.4 | 918.7 | 910.9 | 902.8
